According to patent US5763587A, “Process for the synthesis of amikacin” (Gist Brocades Italy Spa, priority 1987, dated 1998):

Assays:
[1] = Comparison of death rate, toxicity and acute general tolerability in mice by intravenous administration; assay type: in vivo; settings: mouse, in vivo, iv, mice, intravenous (caudal vein), groups of 10 animals, Finney-Probits method
Excerpt: (§1) Some experiments have been thus carried out for the comparison of the death rate, toxicity and acute general tolerability, between the product available in the market from Bristol Myers (BB-K8), amikacin produced according to the synthesis of the present invention and the potential impurities (BB K11, BB K29 and the diacylate with L-HABA at N-1 and N-3"), in mice by intravenous administration (caudal vein) to groups of 10 animals. The LD50 values have been calculated by the Finney-Probits method.

mice = assay: as above; assay type: in vivo
Excerpt: as §1

| Compound | LD50 [1] [mg/kg] | LD50 (mice; mice, intravenous (caudal vein), groups of 10 animals, Finney-Probits method) [mg/kg] | toxicity compared with amikacin (in words) (mice) | toxicity compared with BB-K29 (in words) (mice) |
| --- | --- | --- | --- | --- |
| NCC[C@H](O)C(=O)N[C@@H]1C[C@H](N)[C@@H](O[C@H]2O[C@H](CN)[C@@H](O)[C@H](O)[C@H]2O)[C@H](O)[C@H]1O[C@H]1O[C@H](CO)[C@@H](O)[C@H](N)[C@H]1O [BB-K8 Bristol] | 202 |  |  |  |
| NCC[C@H](O)C(=O)N[C@@H]1C[C@H](N)[C@@H](O[C@H]2O[C@H](CN)[C@@H](O)[C@H](O)[C@H]2O)[C@H](O)[C@H]1O[C@H]1O[C@H](CO)[C@@H](O)[C@H](N)[C@H]1O [Amikacin, 0-3-amino-3-desoxy-alpha-D-glucopyranosyl-(1→6)-0-[6--amino-6-desoxy-alpha-D-glucopyranosyl-(1→)]-N^1-(4-amino-2-hydroxy-1-oxybutyl)-2-desoxy-D-streptamine] |  | 241 |  |  |
| NCC[C@H](O)C(=O)N[C@H]1C[C@@H](N)[C@H](O[C@H]2O[C@H](CO)[C@@H](O)[C@H](N)[C@H]2O)[C@@H](O)[C@@H]1O[C@H]1O[C@H](CN)[C@@H](O)[C@H](O)[C@H]1O [BB-K29] | 126 |  | more toxic than amikacin |  |
| NCC[C@H](O)C(=O)N[C@@H]1[C@@H](O)[C@@H](O[C@@H]2[C@@H](O)[C@H](O[C@H]3O[C@H](CN)[C@@H](O)[C@H](O)[C@H]3O)[C@@H](N)C[C@H]2N)O[C@H](CO)[C@H]1O [BB-K11] | 356 |  |  | lower |
| NCC[C@H](O)C(=O)N[C@@H]1[C@@H](O)[C@@H](O[C@@H]2[C@@H](O)[C@H](O[C@H]3O[C@H](CN)[C@@H](O)[C@H](O)[C@H]3O)[C@@H](N)C[C@H]2NC(=O)[C@@H](O)CCN)O[C@H](CO)[C@H]1O [Diacylate (N-1 and N-3")] | 268 |  |  | lower |
